Experimental data from patent US20260027094A1, “USE OF PYRIDONE DERIVATIVE” (GUANGZHOU JOYO PHARMATECH CO., LTD, priority 2022, published 2026).

Experiments:
[1] = system: carbon tetrachloride-induced SD rat models of liver fibrosis; experiment: In vivo pharmacodynamic study on carbon tetrachloride-induced rat models of liver fibrosis; set-up: species or system SD rats; conditions: for Liver fibrosis score (points): Sirius Red staining, model control 4.90 ± 0.88; for Liver CVF (%): model control 8.75 ± 2.39, normal 1.24 ± 0.23; for Liver HYP content: model control 702.84 ± 173.44, normal 307.30 ± 78.13
Source text: • 1) Animals: SD rats, specific pathogen-free (SPF) grade, male, aged 7 to 8 weeks at the time of grouping, with 10 mice per group. The animals were supplied by Beijing HFK Bioscience Co., Ltd. • 2) Reagents, positive drugs, and test drugs • A. Reagents
• B. Positive Drug: Pirfenidone, Supplied by Biochempartner. • C. Test Drug: compound I, supplied by Guangzhou JOYO Pharmatech Co., Ltd. • 3) Modeling method
Intraperitoneal injection method of carbon tetrachloride: After the adaptation period inspection and observation were qualified, experimental animals were screened by body weight and randomly divided into a normal control group and a model induction group. Starting on the first day of grouping, animals in the model induction group were intraperitoneally injected with a 20% carbon tetrachloride solution dissolved in corn oil, at a modeling frequency of twice a week for six consecutive weeks. After two weeks of carbon tetrachloride induction, animals in the model induction group were randomly subdivided a second time into 5 experimental groups based on their alanine transaminase (ALT) levels (with body weight used as a calibration factor), including the model control group, positive drug treatment group, test compound low dose treatment group, test compound medium dose treatment group, and test compound high dose treatment group. Animals in the normal control group were administered the corresponding vehicle. The experimental period lasted for 6 weeks, during which all animals were given normal access to water and food. • 4) Grouping and administration info
• a: The test compound vehicle was an aqueous solution of 0.5% (w/v) methylcellulose and 0.2% (v/v) Tween 80. • b: An aqueous solution of 0.5% (w/v) methylcellulose and 0.2% (v/v) Tween 80 was used as the vehicle and prepared to the required concentration. • 5) Endpoint sample collection, histopathological analysis, and hydroxyproline content analysis. • A. After euthanizing the animals with pentobarbital sodium anesthesia, the liver was excised and rinsed with normal saline. The liver was divided into three segments: the large lobe, the left lobe, and the right-middle lobe. The large lobe tissue was quickly frozen in liquid nitrogen and stored in a −80° C. refrigerator for measuring the total hydroxyproline levels of animal liver samples in each group. The tissues of left lobe and right-middle lobe of liver were fixed in 10% formaldehyde, embedded in paraffin, and sectioned into 3 μm-thick slices. These slices were then deparaffinized in xylene, rehydrated through a graded ethanol series, subjected to Sirius Red staining, dehydrated, cleared, sealed, and observed under a microscope to capture histopathological changes. Routine tissue freezing was performed. • B. Analysis of fibrosis levels in liver tissue sections;
Based on Sirius Red staining results of liver sections, 1) fibrosis staging was scored according to the scoring criteria listed in Table 3; 2) using Image J, the liver fibrotic area and the total sample area of animals in each experimental group were counted to calculate the collagen volume fraction (CVF %) for each sample. • C. Detection of hydroxyproline levels in liver
The liver large lobe samples were processed according to the instructions using the hydroxyproline detection kit. The total hydroxyproline levels in the liver samples of animals in each group were detected.

[2] = system: TNBS-induced SD rat models of chronic colitis with intestinal fibrosis; experiment: Pharmacodynamic experiment of TNBS-induced rat models of chronic colitis with intestinal fibrosis; assay type: in vivo, SD rats; conditions: for AUC(0-10 d) (D 0-D 10) of DAI scores: after first TNBS induction; for AUC(0-10 d) (D 0-D 10) of DAI scores / AUC(14-24 d) (D 14-D 24) of DAI scores: mean ± SD; for AUC(14-24 d) (D 14-D 24) of DAI scores: after second TNBS induction; for CVF (%) of colon middle segment: Masson staining, model control 6.39 ± 3.16, normal 0.74 ± 0.32; for Inflammatory response (points), histopathological score of colon tissue / Tissue ulcer (points), histopathological score of colon tissue: colon middle segment, model control 2.00 ± 0.00; for HYP (μg/g) of colon middle segment: model control 2109.99 ± 385.85, normal 1141.78 ± 106.42; for Change rate of AUC(0-10 d) (%) / Change rate of AUC(14-24 d) (%): relative to model control group
Source text: • 1) Animals: SD rats, specific pathogen-free (SPF) grade, male, aged 7 to 8 weeks at the time of grouping, with 10 rats per group. The animals were supplied by Beijing HFK Bioscience Co., Ltd. • 2) Reagents, positive drugs, and test drugs • A. Reagents
• B. Positive Drugs: Sulfasalazine Colon-Soluble Capsules, Supplied by Guangdong Qiangji Pharmaceutical Co., Ltd. • C. Test Drug: Compound I, Supplied by Guangzhou JOYO Pharmatech Co., Ltd. • 3) Modeling method
TNBS two-enema method: After the adaptation period inspection and observation were qualified, experimental animals were screened by body weight and randomly divided into six experimental groups based on body weight. The groups included a normal control group, a model control group, a positive drug treatment group, a test compound low dose treatment group, a test compound medium dose treatment group, and a test compound high dose treatment group, with 10 rats in each group. On the day of grouping, animals in the normal control group were administered 50% ethanol solution via enema, while animals in the other groups were administered TNBS ethanol solution via enema. The dose of TNBS was 30 mg per animal, with the induction of the model performed twice at a frequency of once every two weeks. The experimental period lasted for 4 weeks, during which all animals were given normal access to water and food. • 4) Grouping and administration
The Disease Activity Index (DAI) scoring was performed on each group of experimental animals based on indicators such as animal body weight, stool morphology and characteristics, and occult blood or hematochezia. Scoring was performed after model induction, once a day for 10 consecutive days, for a total of 2 rounds.
Note: The DAI score was performed based on the percentage of body weight loss, stool morphology, and progression of blood in the stool. Statistical analysis was conducted comprehensively using these three scoring indicators. • 6) Endpoint sample collection, histopathological analysis, and hydroxyproline content analysis • A. After euthanizing the animals with pentobarbital sodium anesthesia, the colon, i.e., the segment from the end of cecum to the anus, was excised. The intestinal segment was flushed with normal saline, and the entire colon was evenly divided into upper, middle, and lower segments. The middle segment of the colon was further divided, with part of the tissue quickly frozen in liquid nitrogen and stored in a −80° C. refrigerator for measuring the total hydroxyproline levels in the middle segment samples of the colon of animals in each group. The remaining middle segment tissue was fixed in 10% formaldehyde, embedded in paraffin, and sectioned into 3 μm-thick slices. These slices were then deparaffinized in xylene, rehydrated through a graded ethanol series, subjected to H&E staining and Masson staining, dehydrated, cleared, sealed, and observed under a microscope to capture histopathological changes. Routine tissue freezing was performed. • B. Histopathological analysis
• a: Based on the Masson staining results, the area of collagen staining-positive regions and the total area of samples from the middle segment samples of the colon (submucosa and muscularis) of animals in each experimental group were statistically analyzed using Image J to calculate the collagen volume fraction (CVF %) of each sample. • C. Detection of hydroxyproline levels in the colon
The middle segment samples of the colon were processed according to the instructions, using the hydroxyproline detection kit. The total hydroxyproline levels in the middle segment samples of the colon of animals in each group were measured.

[3] = pirfenidone 150 mg/kg twice a day for 4 weeks
[4] = sulfasalazine 50 mg/kg oral gavage twice a day
[5] = sulfasalazine 50 mg/kg twice a day
[6] = sulfasalazine 50 mg/kg twice a day for 4 weeks
[7] = Compound I high dose 30 mg/kg twice a day for 4 weeks
[8] = Compound I low dose 3 mg/kg twice a day for 4 weeks
[9] = Compound I medium dose 10 mg/kg twice a day for 4 weeks
[10] = Compound I high dose 15 mg/kg oral gavage twice a day
[11] = Compound I high dose 15 mg/kg twice a day for 4 weeks
[12] = Compound I high dose 15 mg/kg twice a day
[13] = Compound I low dose 3 mg/kg oral gavage twice a day
[14] = Compound I low dose 3 mg/kg twice a day
[15] = Compound I medium dose 6 mg/kg oral gavage twice a day
[16] = Compound I medium dose 6 mg/kg twice a day for 4 weeks
[17] = Compound I medium dose 6 mg/kg twice a day

Cc1ccc(=O)n(-c2ccccc2)c1 [Pirfenidone, reference compound]
Liver fibrosis score (points) ([1]; pirfenidone 150 mg/kg oral gavage twice a day for 4 weeks): 5.40 ± 0.52 points
Liver CVF (%) [1, 3]: 6.58 ± 2.20 %
Liver HYP content [1, 3]: 611.19 ± 183.66 µg/g
Liver histopathological improvement under light microscope ([1]; pirfenidone 150 mg/kg twice a day, Sirius Red): no significant improvement

O=C(O)c1cc(/N=N/c2ccc(S(=O)(=O)Nc3ccccn3)cc2)ccc1O [Sulfasalazine, reference compound]
AUC(0-10 d) (D 0-D 10) of DAI scores [2, 4]: 29.80 ± 2.79
AUC(14-24 d) (D 14-D 24) of DAI scores [2, 4]: 11.70 ± 1.69
Proliferation of connective tissue and fibrosis process in submucosa and muscularis of the colon [2, 5]: significant improvements and healing
CVF (%) of colon middle segment [2, 6]: 2.67 ± 1.06 %
Inflammatory response (points), histopathological score of colon tissue [2, 6]: 0.60 ± 0.52 points
Tissue ulcer (points), histopathological score of colon tissue [2, 6]: 0.50 ± 0.53 points
HYP (μg/g) of colon middle segment [2, 6]: 1299.79 ± 161.27 µg/g
Change rate of AUC(0-10 d) (%) [2, 5]: −34.86%
Change rate of AUC(14-24 d) (%) [2, 5]: −51.35%

CC1(c2ccc(=O)n(-c3ccsc3)c2)COC1 [Compound I]
Efficacy evaluation result (conclusion) ([1]; Compound I 3.0, 10.0 and 30.0 mg/kg twice a day, 4 weeks): significant therapeutic effect
Liver fibrosis score (points) ([1]; Compound I high dose 30 mg/kg oral gavage twice a day for 4 weeks): 4.20 ± 0.92 points
Liver CVF (%) [1, 7]: 5.60 ± 1.92 %
Liver HYP content [1, 7]: 607.79 ± 112.74 µg/g
Liver fibrosis score (points) ([1]; Compound I low dose 3 mg/kg oral gavage twice a day for 4 weeks): 4.40 ± 0.70 points
Liver CVF (%) [1, 8]: 5.02 ± 1.42 %
Liver HYP content [1, 8]: 716.17 ± 105.01 µg/g
Pseudolobular structure of the liver under light microscope ([1]; Compound I medium and high dose treatment groups (10, 30 mg/kg twice a day), some animals, Sirius Red): tended to disintegrate
Liver fibrosis score (points) ([1]; Compound I medium dose 10 mg/kg oral gavage twice a day for 4 weeks): 4.00 ± 0.94 points
Liver CVF (%) [1, 9]: 4.87 ± 1.68 %
Liver HYP content [1, 9]: 560.60 ± 114.04 µg/g
Hepatocyte fat degeneration and swelling degeneration in the central vein area of the liver ([1]; each Compound I treatment group vs model control, medium and high dose most obvious): reduced to some extent
Efficacy evaluation result (conclusion) ([2]; Compound I 3.0, 6.0 and 15.0 mg/kg twice a day, 4 weeks): significant therapeutic effect
AUC(0-10 d) (D 0-D 10) of DAI scores [2, 10]: 33.50 ± 3.97
AUC(14-24 d) (D 14-D 24) of DAI scores [2, 10]: 15.40 ± 3.50
CVF (%) of colon middle segment [2, 11]: 2.37 ± 1.33 %
Inflammatory response (points), histopathological score of colon tissue [2, 11]: 0.80 ± 0.79 points
Tissue ulcer (points), histopathological score of colon tissue [2, 11]: 0.70 ± 0.67 points
HYP (μg/g) of colon middle segment [2, 11]: 1270.56 ± 287.01 µg/g
Change rate of AUC(0-10 d) (%) [2, 12]: −26.78%
Change rate of AUC(14-24 d) (%) [2, 12]: −35.97%
AUC(0-10 d) (D 0-D 10) of DAI scores [2, 13]: 37.15 ± 4.93
AUC(14-24 d) (D 14-D 24) of DAI scores [2, 13]: 19.30 ± 2.79
CVF (%) of colon middle segment [2, 8]: 2.97 ± 1.78 %
Inflammatory response (points), histopathological score of colon tissue [2, 8]: 1.00 ± 0.67 points
Tissue ulcer (points), histopathological score of colon tissue [2, 8]: 0.80 ± 0.63 points
HYP (μg/g) of colon middle segment [2, 8]: 1333.43 ± 155.33 µg/g
Change rate of AUC(0-10 d) (%) [2, 14]: −18.80%
Change rate of AUC(14-24 d) (%) [2, 14]: −19.75%
AUC(0-10 d) (D 0-D 10) of DAI scores [2, 15]: 36.05 ± 4.87
AUC(14-24 d) (D 14-D 24) of DAI scores [2, 15]: 17.25 ± 3.16
CVF (%) of colon middle segment [2, 16]: 2.36 ± 1.47 %
Inflammatory response (points), histopathological score of colon tissue [2, 16]: 0.70 ± 0.67 points
Tissue ulcer (points), histopathological score of colon tissue [2, 16]: 0.70 ± 0.67 points
HYP (μg/g) of colon middle segment [2, 16]: 1228.40 ± 235.44^####+ μg/g
Change rate of AUC(0-10 d) (%) [2, 17]: −21.20%
Change rate of AUC(14-24 d) (%) [2, 17]: −28.27%
Colon tissue healing and degree of fibrosis (histopathology) ([2]; all Compound I treatment groups (3, 6, 15 mg/kg twice a day)): tissue healing and a reduction in the degree of fibrosis were observed
Effective dose (colon fibrosis, HYP level improvement) ([2]; oral gavage twice a day, certain dose-dependent relationship): 3.0 mg/kg
Effective low dose (DAI AUC(0-10 d) improvement) ([2]; oral gavage twice a day, chronic colitis disease process): 3.0 mg/kg
